Measured values as given in patent US6664372B1, “Azatide peptidomimetics” (The Scripps Research Institute, priority 1996, dated 2003).
Starred links: 1 amine or outer side, 2 acyl side, 3 side chain; linkers in the order of their positions; H or OH if unused. Non-standard residues stand in square brackets, D forms with d. No end group written: not given here. azaTyr = O=C(N(Cc1ccc(O)cc1)N[*:1])[*:2]; azaPhe = O=C(N(Cc1ccccc1)N[*:1])[*:2]; azaLeu = CC(C)CN(N[*:1])C(=O)[*:2]; azaGly = NNC(=O)O

System: anti-β-endorphin monoclonal antibody 3-E7 (IgG 3-E7)
Experiment: Azatide (16) competition ELISA for anti-β-endorphin monoclonal antibody
Format: binding, mouse
Details: at 1 mM, plate coated with Tyr-Gly-Gly-Phe-Leu-BSA conjugate

**Q.** Which results are given for “Tyr^a-Gly^a-Gly^a-Phe^a-Leu^a.2CP3COOH ([azaTyr][azaGly][azaGly][azaPhe][azaLeu]; also: salt/adduct .2CP3COOH) [compound 16, Leu-enkephalin azatide mimetic; every α-carbon replaced by nitrogen]”?
**A.** competition with the natural peptide for 3-E7 (competition ELISA): non-ligand; competition with the natural peptide for 3-E7 (competition ELISA) (listed as azatide pentamer): no propensity to compete
